Laboratory results: the supplement of paper PMC10307832

Experiments:
Test in all cases: relative viability (nuclei count vs DMSO), 5 days (fraction); higher = more cells survive
OSI-027 + Lapatinib = compound: COc1cccc2cc(-c3nc([C@H]4CC[C@H](C(=O)O)CC4)n4ncnc(N)c34)[nH]c12 [OSI-027] + CS(=O)(=O)CCNCc1ccc(-c2ccc3ncnc(Nc4ccc(OCc5cccc(F)c5)c(Cl)c4)c3c2)o1 [Lapatinib] (partner 2 µM)
In short: (§1)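 Nuclei were stained with Hoechst during a one-step fixation (final 0.05% Triton X-100, 1% formaldehyde, 1 ug/ml Hoechst) carried out 5 days after dosing, then counted on 4× images. The cells, lung cancer lines in 1536-well plates, had been dosed by pin tool the day after seeding with one drug alone or a fixed anchor-drug dose plus five library-drug doses (not always all listed) in √10 steps. Relative viability is the nuclei count in treated wells divided by that in vehicle wells, and each value is the median of duplicate plates.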

Alpelisib + Bortezomib = compound: Cc1nc(NC(=O)N2CCC[C@H]2C(N)=O)sc1-c1ccnc(C(C)(C)C(F)(F)F)c1 [Alpelisib] + CC(C)C[C@H](NC(=O)[C@H](Cc1ccccc1)NC(=O)c1cnccn1)B(O)O [Bortezomib] (partner 0.002 µM)
In short: as §1

Vemurafenib + Navitoclax = compound: CCCS(=O)(=O)Nc1ccc(F)c(C(=O)c2c[nH]c3ncc(-c4ccc(Cl)cc4)cc23)c1F [Vemurafenib] + CC1(C)CCC(c2ccc(Cl)cc2)=C(CN2CCN(c3ccc(C(=O)NS(=O)(=O)c4ccc(N[C@H](CCN5CCOCC5)CSc5ccccc5)c(S(=O)(=O)C(F)(F)F)c4)cc3)CC2)C1 [Navitoclax] (partner 0.5 µM)
In short: as §1

Alpelisib + Linsitinib = compound: Cc1nc(NC(=O)N2CCC[C@H]2C(N)=O)sc1-c1ccnc(C(C)(C)C(F)(F)F)c1 [Alpelisib] + C[C@]1(O)C[C@@H](c2nc(-c3ccc4ccc(-c5ccccc5)nc4c3)c3c(N)nccn32)C1 [Linsitinib] (partner 1 µM)
In short: as §1

Cell Line	relative viability (OSI-027 + Lapatinib; first compound 0.01 µM)	relative viability (OSI-027 + Lapatinib; first compound 0.03162 µM)	relative viability (OSI-027 + Lapatinib; first compound 0.1 µM)	relative viability (OSI-027 + Lapatinib; first compound 0.3162 µM)	relative viability (OSI-027 + Lapatinib; first compound 1 µM)	relative viability (Alpelisib + Bortezomib; first compound 0.04 µM)	relative viability (Alpelisib + Bortezomib; first compound 0.1265 µM)	relative viability (Alpelisib + Bortezomib; first compound 0.4 µM)	relative viability (Alpelisib + Bortezomib; first compound 1.265 µM)	relative viability (Alpelisib + Bortezomib; first compound 4 µM)	relative viability (Vemurafenib + Navitoclax; first compound 0.03162 µM)	relative viability (Vemurafenib + Navitoclax; first compound 0.1 µM)	relative viability (Vemurafenib + Navitoclax; first compound 0.3162 µM)	relative viability (Vemurafenib + Navitoclax; first compound 1 µM)	relative viability (Alpelisib + Linsitinib; first compound 0.04 µM)	relative viability (Alpelisib + Linsitinib; first compound 0.1265 µM)	relative viability (Alpelisib + Linsitinib; first compound 0.4 µM)	relative viability (Alpelisib + Linsitinib; first compound 1.265 µM)	relative viability (Alpelisib + Linsitinib; first compound 4 µM)
SK-LU-1	0.888	0.817	0.656	0.519	0.29	1.36	0.723	1.01	0.805	0.934	0.914	0.74	0.751	0.564	1.22	1.14	1.27	0.939	1.06
NCI-H520	0.832	0.835	0.666	0.408	0.235	0.59	0.687	0.553	0.623	0.319	1.04	1.16	1.11	1.15	1.01	1.04	1.01	1.02	0.723
NCI-H1755	1.01	1.06	1.01	0.817	0.579	0.911	0.972	1.06	0.886	0.838	0.937	0.953	1.05	0.998	1.01	0.941	1.03	0.978	0.764
CAL-12T	0.648	0.589	0.499	0.375	0.418	1.08		0.952		0.718	1.28	1.2	1.47	1.28	0.801	0.67	0.814	0.784	0.76
NCI-H1734	1.03	1.12	0.935	0.781	0.489	0.896	0.814	0.943	0.623	0.518	0.787	0.77	0.784	0.823	0.814	0.885	0.875	0.71	0.489
BEN	0.626	0.529	0.419	0.355	0.281	0.793	0.733	0.807	0.761	0.697	0.0514	0.0623	0.0526	0.0536	0.859	0.857	1.14	0.828	0.959
NCI-H647	1.11	1.02	1.17	0.843	0.443	0.75	1.1	1.34	0.944	0.922	1.05	0.913		1.23	1.01	1.29	1.13	1.12	1.12
HCC-44	1.05	0.975	0.93	0.85	0.444	0.882	0.873	0.937	0.788	0.683	0.879	0.931	0.973	1.03	0.707	0.7	0.738	0.582	0.543
NCI-H1792	0.749	0.826	0.815	0.739	0.213	0.927	0.888	1.05	0.851	0.315	0.565	0.61	0.439	0.593	0.505	0.566	0.619	0.539	0.38
NCI-H2347	0.983	0.921	0.885	0.806	0.516	0.784	0.849	1.12	1.08	0.876	0.633	0.78	0.7	0.75	0.997	0.941	1.03	0.84	0.952
LC-2-ad	1.05	0.981	0.978	1.1	0.709	1.05	1.01	1.09	0.955	0.844	0.457	0.422	0.535	0.46	0.766	0.798	0.839	0.724	0.66
COR-L 105	0.34	0.356	0.336	0.297	0.295	0.92	0.86	1.33	0.735	0.782	0.647		0.815	0.841	1.04	0.874	0.976	0.902	0.841
NCI-H838	0.937	0.975	0.868	0.584	0.377	0.692	0.482	0.668	0.782	0.487	1.07	1.21		1.27	0.969	1.02	0.983	0.807	0.956
COR-L23	0.887	1.2	0.744	1	0.34	0.945	0.976	1.13	0.798	0.802	0.841	0.988	0.76	0.953	0.836	0.889	0.856	0.69	0.592
EMC-BAC-2	0.843	0.874	0.838	0.7	0.516	1.02	1.01	1.22	0.929	0.741	1.15	1.01	1.17	1.14	0.773	0.811	0.79	0.657	0.678
NCI-H3122	1.09	1.1	1.14	1.05	0.808	0.992	1.08	0.984	1.12	0.999	1.04	0.993	1.02	1.1	0.994	0.938	1.02	0.715	0.675
NCI-H2023	0.735	0.663	0.567	0.393	0.18	0.926	0.952	0.942	0.57	0.601	0.974	1.03	1.03	1.02	0.612	0.634	0.628	0.574	0.444
